# ChEMBL document CHEMBL5303304, “EUbOPEN Chemogenomics Library - IncuCyte” (2023)
# Tests used:
# Format in all cases: toxicity, cell-based
# [1] = tested on: HEK-293T; assay: Incucyte cell viability with HEK293T; conditions: human, 10 µM, compound concentration 10 uM
# [2] = tested on: Fibroblast; assay: Incucyte cell viability with human fibroblast; conditions: 10 µM, compound concentration 10 uM
# [3] = tested on: U2OS; assay: Incucyte cell viability with U2OS; conditions: human, 10 µM, compound concentration 10 uM
# Further: unitless GR value; below 1 slowed growth and below 0 cell loss.
SMILES,"Growth Rate ([1]; 0 h, replicate number 2)","Growth Rate ([1]; 6 h, replicate number 2)","Growth Rate ([2]; 6 h, replicate number 2)","Growth Rate ([2]; 12 h, replicate number 2)","Growth Rate ([2]; 18 h, replicate number 1)","Growth Rate ([2]; 18 h, replicate number 2)","Growth Rate ([3]; 0 h, replicate number 1)","Growth Rate ([3]; 24 h, replicate number 2)","Growth Rate ([1]; 6 h, replicate number 1)","Growth Rate ([1]; 12 h, replicate number 1)","Growth Rate ([1]; 18 h, replicate number 1)","Growth Rate ([1]; 18 h, replicate number 2)","Growth Rate ([1]; 24 h, replicate number 1)","Growth Rate ([3]; 6 h, replicate number 1)","Growth Rate ([3]; 6 h, replicate number 2)","Growth Rate ([3]; 12 h, replicate number 2)","Growth Rate ([3]; 18 h, replicate number 2)","Growth Rate ([2]; 6 h, replicate number 1)","Growth Rate ([2]; 24 h, replicate number 2)","Growth Rate ([3]; 0 h, replicate number 2)",also measured
CC(C)c1cc(Br)c(NC(=O)Nc2cccnc2)c(Br)c1,0.91,0.84,-0.99,0.73,-0.82,0.89,-0.34,0.98,,,,,,,,,,,,,
CC(C1CC2CCC1C2)n1c(S)nnc1-c1ccco1 (stereo unspecified),0.53,0.46,,,-0.08,,,0.89,0.59,0.81,0.69,0.74,0.75,0.78,0.22,0.67,0.78,,,,"Growth Rate ([1]; 12 h, replicate number 2): 0.63; Growth Rate ([1]; 24 h, replicate number 2): 0.81; Growth Rate ([2]; 12 h, replicate number 1): -1; Growth Rate ([3]; 12 h, replicate number 1): 0.97"
CC1(C)CC(=O)c2c(SCCO)sc(-c3nccs3)c2C1,0.82,,,,,,,0.97,,,,,,0.66,,,,-1,,,"Growth Rate ([2]; 0 h, replicate number 2): -0.3; Growth Rate ([3]; 12 h, replicate number 1): 0.87; Growth Rate ([3]; 18 h, replicate number 1): 0.97"
CCCCCN1C(=O)C2(COc3cc4c(cc32)OCO4)c2ccccc21 (stereo unspecified),0.62,0.92,-0.97,0.76,-0.52,0.91,-0.63,0.88,0.51,,,,,,0.76,0.8,0.98,,0.74,-1,"Growth Rate ([2]; 24 h, replicate number 1): 0.82"
CCN(c1ccccc1)c1cc(NC)[n+](C)c(C)n1.[Cl-],0.56,,-1,0.8,-0.22,,,,0.95,0.84,0.58,0.99,0.79,0.41,0.69,0.84,0.83,,0.91,-0.9,"Growth Rate ([2]; 0 h, replicate number 1): -0.7; Growth Rate ([2]; 24 h, replicate number 1): 0.44; Growth Rate ([3]; 24 h, replicate number 1): 0.87"
CC(C)Oc1ccc(-c2cnc3c(-c4ccnc5ccccc45)cnn3c2)cc1,0.99,,,,0.49,,-0.36,0.97,-0.63,-0.46,-0.07,,0.3,,0.23,0.74,0.79,0.72,,,"Growth Rate ([2]; 0 h, replicate number 2): -0.98; Growth Rate ([2]; 12 h, replicate number 1): -1"
COc1cc(NC(=O)c2ccc(-c3ccc(Cl)cc3)o2)cc(OC)c1,0.52,,-1,0.03,0.5,0.54,0.66,0.79,0.31,,,,,,0.2,0.72,0.89,,0.45,,"Growth Rate ([2]; 0 h, replicate number 1): 0.51; Growth Rate ([3]; 24 h, replicate number 1): 0.98"
C[C@@H](CN1CCC(Cc2ccccc2)CC1)[C@@H](O)c1ccc(O)cc1,0.98,0.36,-0.45,0.48,,0.53,-0.54,,,,,,,0.07,,,0.99,-0.49,0.68,-0.81,"Growth Rate ([1]; 12 h, replicate number 2): 0.86; Growth Rate ([2]; 12 h, replicate number 1): -0.59; Growth Rate ([2]; 24 h, replicate number 1): 0.78; Growth Rate ([3]; 12 h, replicate number 1): 0.85; Growth Rate ([3]; 18 h, replicate number 1): 0.98; Growth Rate ([3]; 24 h, replicate number 1): 0.96"
CN(C)C/C=C/C(=O)Nc1cccc(C(=O)Nc2ccc(Nc3nccc(-c4cccnc4)n3)cc2)c1,0.56,-0.56,0.47,-0.34,,-0.31,-0.34,0.13,-0.88,-0.9,-0.74,-0.44,-0.55,,,0.74,0.42,-1,-0.26,,"Growth Rate ([1]; 12 h, replicate number 2): -0.52; Growth Rate ([1]; 24 h, replicate number 2): -0.37; Growth Rate ([2]; 0 h, replicate number 2): 0.35; Growth Rate ([3]; 12 h, replicate number 1): 0.85; Growth Rate ([3]; 18 h, replicate number 1): 0.46; Growth Rate ([3]; 24 h, replicate number 1): 0.27"
Cc1cc(-c2nncc3c(C(C)(C)C)c(OCc4ncnn4C)nn23)no1,0.72,0.78,-0.97,0.98,0.1,0.78,,0.86,0.14,0.35,0.1,0.57,0.14,0.85,0.23,0.67,0.71,1,0.87,-0.99,"Growth Rate ([1]; 12 h, replicate number 2): 0.53; Growth Rate ([1]; 24 h, replicate number 2): 0.61; Growth Rate ([2]; 0 h, replicate number 1): -0.5; Growth Rate ([2]; 24 h, replicate number 1): 0.26; Growth Rate ([3]; 18 h, replicate number 1): 0.82; Growth Rate ([3]; 24 h, replicate number 1): 0.93"
COCCNc1cc(NC(=O)N2CCCc3cc(CN4CCOCC4=O)c(C=O)nc32)ncc1C#N,0.81,,-1,0.58,-0.07,,-0.03,,0.42,,,,,0.95,,,,0.86,0.95,,"Growth Rate ([2]; 12 h, replicate number 1): -1; Growth Rate ([2]; 24 h, replicate number 1): 0.7"
CC(C)(C)C1CCc2c(sc(NC(=O)c3ccco3)c2C(=O)O)C1 (stereo unspecified),0.67,0,-0.97,0.65,-0.68,,,0.84,-0.05,-0.04,-0.24,-0.17,-0.21,-0.02,0.95,0.8,0.79,0.79,,-1,"Growth Rate ([1]; 12 h, replicate number 2): -0.11; Growth Rate ([1]; 24 h, replicate number 2): -0.13; Growth Rate ([2]; 0 h, replicate number 1): -0.35; Growth Rate ([2]; 0 h, replicate number 2): -0.91; Growth Rate ([2]; 12 h, replicate number 1): -1"
CCOC(=O)c1ccc(N2C(=O)C(O)=C(C(=O)c3ccc(OC)cc3)C2c2ccc(F)cc2)cc1 (stereo unspecified),0.85,,,,-0.29,,0.54,0.74,0.75,,,0.83,,,0.87,0.89,1,0.14,,0.5,"Growth Rate ([1]; 24 h, replicate number 2): 0.85; Growth Rate ([2]; 0 h, replicate number 2): -0.75; Growth Rate ([2]; 12 h, replicate number 1): -1; Growth Rate ([3]; 18 h, replicate number 1): 0.96"
Cn1c(=O)n(CCCO)c(=O)c2c1nc(Oc1cccc(Cl)c1)n2Cc1ccc(Cl)cc1,0.3,0.26,-0.99,0.66,0.33,,,0.89,,,,0.84,,0.38,,0.93,0.82,,0.85,,"Growth Rate ([1]; 12 h, replicate number 2): 0.77; Growth Rate ([1]; 24 h, replicate number 2): 0.83; Growth Rate ([3]; 18 h, replicate number 1): 0.86; Growth Rate ([3]; 24 h, replicate number 1): 0.94"
COc1cc([N+](=O)[O-])ccc1NC(=O)c1ccccc1O,0.91,-0.12,,0.57,,0.65,0.1,0.55,-0.49,-0.12,-0.01,-0.02,0.08,0.2,0.94,0.63,0.46,-0.98,0.64,-0.67,"Growth Rate ([1]; 12 h, replicate number 2): -0.05; Growth Rate ([1]; 24 h, replicate number 2): -0.01; Growth Rate ([2]; 0 h, replicate number 2): 0.04; Growth Rate ([3]; 12 h, replicate number 1): 0.27; Growth Rate ([3]; 18 h, replicate number 1): 0.4; Growth Rate ([3]; 24 h, replicate number 1): 0.48"
CC[C@](C)(O)C#Cc1cc2c(ccn2-c2cc(OC)nc(N)n2)cn1,0.37,0.55,,,0.63,,,,-0.14,0.4,0.76,,0.84,,,,,-0.12,0.83,-0.28,"Growth Rate ([2]; 0 h, replicate number 1): -0.3; Growth Rate ([2]; 12 h, replicate number 1): -1"
